Source: PubChem BioAssay AID1963446 (Molecular Pharmacology Branch, DTP, NCI, 2024)

Test system: 993429-296-R-J1-PDC complex spheroid growth, percent test/control
Assay: Anticancer human tumor 993429-296-R-J1-PDC patient-derived uterine sarcoma cell line growth inhibition [Asc]
Conditions: for IC50: curve of first compound; for viability, T/C: stronger effect = lower value; active means viability on the fitted dose curve at most 10% of control; inactive means the rest
Outline: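 Tumor cells were grown as complex spheroids with human endothelial cells (HUVEC) and human mesenchymal stem cells as stroma. Agents were tested alone and in combination, in half-log steps down from the clinical Cmax, or from 10 microM where Cmax was unknown.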
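Further: spheroids exposed to compounds for seven days.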

CCN1C(C(=O)NC23CCC(C(=O)O)(CC2)CC3)C(c2cccc(Cl)c2F)C2(C(=O)Nc3cc(Cl)ccc32)C12CCCCC2 (stereo not given) + CNC(C)C(=O)NC1CN(S(=O)(=O)c2cccc(S(=O)(=O)N3CCC4CCC(C(=O)NC(c5ccccc5)c5ccccc5)N4C(=O)C(NC(=O)C(C)NC)C3)c2)CCC2CCC(C(=O)NC(c3ccccc3)c3ccccc3)N2C1=O
> 3000 nM: IC50 (second compound 0.01 µM) | IC50 (second compound 0.0316 µM) | IC50 (second compound 0.1 µM) | IC50 (second compound 1 µM)
inactive: viability, T/C (second compound 0.01 µM, first compound 0.00949 µM) 66.7% | viability, T/C (second compound 0.01 µM, first compound 0.03 µM) 61.1% | viability, T/C (second compound 0.01 µM, first compound 0.0949 µM) 64% | viability, T/C (second compound 0.01 µM, first compound 0.3 µM) 66.5% | viability, T/C (second compound 0.01 µM, first compound 0.949 µM) 74.5% | viability, T/C (second compound 0.01 µM, first compound 3 µM) 60% | viability, T/C (second compound 0.0316 µM, first compound 0.00949 µM) 66.2% | viability, T/C (second compound 0.0316 µM, first compound 0.03 µM) 61.2% | viability, T/C (second compound 0.0316 µM, first compound 0.0949 µM) 55% | viability, T/C (second compound 0.0316 µM, first compound 0.3 µM) 54.5% | viability, T/C (second compound 0.0316 µM, first compound 0.949 µM) 68.5% | viability, T/C (second compound 0.0316 µM, first compound 3 µM) 61.1% | viability, T/C (second compound 0.1 µM, first compound 0.00949 µM) 58.9% | viability, T/C (second compound 0.1 µM, first compound 0.03 µM) 50% | viability, T/C (second compound 0.1 µM, first compound 0.0949 µM) 56% | viability, T/C (second compound 0.1 µM, first compound 0.3 µM) 48.4% | viability, T/C (second compound 0.1 µM, first compound 0.949 µM) 60.1% | viability, T/C (second compound 0.1 µM, first compound 3 µM) 64% | viability, T/C (second compound 0.316 µM, first compound 0.00949 µM) 48.9% | viability, T/C (second compound 0.316 µM, first compound 0.03 µM) 55.7% | viability, T/C (second compound 0.316 µM, first compound 0.0949 µM) 53% | viability, T/C (second compound 0.316 µM, first compound 0.3 µM) 60.8% | viability, T/C (second compound 0.316 µM, first compound 0.949 µM) 68.7% | viability, T/C (second compound 0.316 µM, first compound 3 µM) 58.1% | viability, T/C (second compound 1 µM, first compound 0.00949 µM) 55.3% | viability, T/C (second compound 1 µM, first compound 0.03 µM) 59.9% | viability, T/C (second compound 1 µM, first compound 0.0949 µM) 45.4% | viability, T/C (second compound 1 µM, first compound 0.3 µM) 40.9% | viability, T/C (second compound 1 µM, first compound 0.949 µM) 51.8% | viability, T/C (second compound 1 µM, first compound 3 µM) 63.1%
< 9.49 nM: IC50 (second compound 0.316 µM)

C=C(F)C(=O)N1CCN(c2nc(OCC3CCCN3C)nc3c2CCN(c2cccc4cccc(Cl)c24)C3)CC1CC#N (stereo not given) + CNC(C)C(=O)NC1CN(S(=O)(=O)c2cccc(S(=O)(=O)N3CCC4CCC(C(=O)NC(c5ccccc5)c5ccccc5)N4C(=O)C(NC(=O)C(C)NC)C3)c2)CCC2CCC(C(=O)NC(c3ccccc3)c3ccccc3)N2C1=O
inactive: viability, T/C (second compound 0.01 µM, first compound 0.0316 µM) 54.2% | viability, T/C (second compound 0.01 µM, first compound 0.1 µM) 59.8% | viability, T/C (second compound 0.01 µM, first compound 0.316 µM) 57.6% | viability, T/C (second compound 0.01 µM, first compound 1 µM) 50.4% | viability, T/C (second compound 0.0316 µM, first compound 0.0316 µM) 59.9% | viability, T/C (second compound 0.0316 µM, first compound 0.1 µM) 58.6% | viability, T/C (second compound 0.0316 µM, first compound 0.316 µM) 55.4% | viability, T/C (second compound 0.0316 µM, first compound 1 µM) 51.7% | viability, T/C (second compound 0.1 µM, first compound 0.0316 µM) 51.4% | viability, T/C (second compound 0.1 µM, first compound 0.1 µM) 54.7% | viability, T/C (second compound 0.1 µM, first compound 0.316 µM) 54.8% | viability, T/C (second compound 0.1 µM, first compound 1 µM) 47.4% | viability, T/C (second compound 0.316 µM, first compound 0.0316 µM) 45.9% | viability, T/C (second compound 0.316 µM, first compound 0.1 µM) 52.4% | viability, T/C (second compound 0.316 µM, first compound 0.316 µM) 40.3% | viability, T/C (second compound 0.316 µM, first compound 1 µM) 45.4% | viability, T/C (second compound 1 µM, first compound 0.0316 µM) 57.8% | viability, T/C (second compound 1 µM, first compound 0.1 µM) 37.8% | viability, T/C (second compound 1 µM, first compound 0.316 µM) 37.6% | viability, T/C (second compound 1 µM, first compound 1 µM) 34.2% | viability, T/C (second compound 1 µM, first compound 3.16 µM) 3.13%
55.9 nM: IC50 (second compound 1 µM)
1040 nM: IC50 (second compound 0.0316 µM)
1010 nM: IC50 (second compound 0.01 µM)
< 31.6 nM: IC50 (second compound 0.316 µM)
617 nM: IC50 (second compound 0.1 µM)
active: viability, T/C (second compound 0.01 µM, first compound 3.16 µM) 7.74% | viability, T/C (second compound 0.01 µM, first compound 10 µM) 0.13% | viability, T/C (second compound 0.0316 µM, first compound 3.16 µM) 5.7% | viability, T/C (second compound 0.0316 µM, first compound 10 µM) 0.12% | viability, T/C (second compound 0.1 µM, first compound 3.16 µM) 7.4% | viability, T/C (second compound 0.1 µM, first compound 10 µM) 0.12% | viability, T/C (second compound 0.316 µM, first compound 3.16 µM) 7.07% | viability, T/C (second compound 0.316 µM, first compound 10 µM) 0.12% | viability, T/C (second compound 1 µM, first compound 10 µM) 0.2%
